# Several values for one entry are separate records, joined by “and”; a condition that tells them apart may be missing. Equal values may be shown once. Toxic doses and inconclusive results are not listed.
# System: B6C3F1 mice, B16 melanoma ip, median survival T/C
# Test: NCI In Vivo Anticancer Drug Screen. Data for tumor model B16 Melanoma (intraperitoneal) in B6C3F1 mice
# Details: endpoint: median survival time, higher = longer survival
# How it was run: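 Readout: survival or tumor size in treated mice relative to vehicle controls (T/C). Model uses transplantable tumors grown in mice.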
# [1] = dose: 50.0 mg/kg/injection, schedule: Q01DX009 (ip), vehicle: saline with Tween-80
# [2] = dose: 100.0 mg/kg/injection, schedule: Q01DX009 (ip), vehicle: saline with Tween-80
# [3] = dose: 200.0 mg/kg/injection, schedule: Q01DX009 (ip), vehicle: saline with Tween-80
# [4] = dose: 16.0 mg/kg/injection, schedule: Q01DX009 (ip), vehicle: saline with Tween-80
# [5] = dose: 32.0 mg/kg/injection, schedule: Q01DX009 (ip), vehicle: saline with Tween-80
# [6] = dose: 64.0 mg/kg/injection, schedule: Q01DX009 (ip), vehicle: saline with Tween-80
# [7] = dose: 128.0 mg/kg/injection, schedule: Q01DX009 (ip), vehicle: saline with Tween-80
smiles,measurement,setting,value
O=C1CC2(C(=O)N1CN1CCOCC1)c1ccccc1-c1ccccc12,T/C,"dose: 100.0 mg/kg/injection, schedule: Q01DX009 (ip), vehicle: Klucel (hydroxypropylcellulose) (HPC)",93 % of control
same,T/C,"dose: 200.0 mg/kg/injection, schedule: Q01DX009 (ip), vehicle: Klucel (hydroxypropylcellulose) (HPC)",98 % of control
same,T/C,"dose: 400.0 mg/kg/injection, schedule: Q01DX009 (ip), vehicle: Klucel (hydroxypropylcellulose) (HPC)",93 % of control
Cn1nnc2c1C(=O)c1ccccc1C2=O,T/C,[1],88 % of control
same,T/C,[2],90 % of control
same,T/C,[3],89 % of control
c1ccc2[nH]ncc2c1,T/C,[1],107 % of control
same,T/C,[2],104 % of control
same,T/C,[3],102 % of control
O=C1NC(c2ccccc2)N=C2Oc3ccccc3C=C12 (stereo not drawn),T/C,"dose: 1.56 mg/kg/injection, schedule: Q01DX009 (ip), vehicle: saline with Tween-80",101 % of control
same,T/C,"dose: 3.12 mg/kg/injection, schedule: Q01DX009 (ip), vehicle: saline with Tween-80",103 % of control
same,T/C,"dose: 3.13 mg/kg/injection, schedule: Q01DX009 (ip), vehicle: saline with Tween-80",97 % of control
same,T/C,"dose: 6.25 mg/kg/injection, schedule: Q01DX009 (ip), vehicle: saline with Tween-80",118 % of control and 124 % of control
same,T/C,"dose: 12.5 mg/kg/injection, schedule: Q01DX009 (ip), vehicle: saline with Tween-80",116 % of control and 122 % of control
same,T/C,[1],113 % of control
C=C(C)/C([O-])=N/[N+](C)(C)CC(O)CCCCCCCCCCCC (stereo not drawn),T/C,"dose: 25.0 mg/kg/injection, schedule: Q01DX001 (ip), vehicle: saline",109 % of control
same,T/C,"dose: 50.0 mg/kg/injection, schedule: Q01DX001 (ip), vehicle: saline",114 % of control and 116 % of control
same,T/C,"dose: 100.0 mg/kg/injection, schedule: Q01DX001 (ip), vehicle: saline",114 % of control and 90 % of control
same,T/C,"dose: 200.0 mg/kg/injection, schedule: Q01DX001 (ip), vehicle: saline",86 % of control
Cc1[nH]ccc(=O)c1O,T/C,[4],103 % of control
same,T/C,[5],103 % of control
same,T/C,[6],109 % of control
same,T/C,[7],111 % of control
same,T/C,"dose: 256.0 mg/kg/injection, schedule: Q01DX009 (ip), vehicle: saline with Tween-80",118 % of control
CC(=O)[C@]1(O)Cc2c(O)c3c(c(O)c2[C@@H](OC2CC(N)C(O)C(C)O2)C1)C(=O)c1c(O)cccc1C3=O (stereo partly drawn),T/C,"dose: 0.38 mg/kg/injection, schedule: Q01DX001 (ip), vehicle: water",150 % of control
CCN(CC)CCC(=O)c1ccccc1,T/C,"dose: 3.12 mg/kg/injection, schedule: Q01DX009 (ip), vehicle: suspension in saline",97 % of control
same,T/C,"dose: 6.25 mg/kg/injection, schedule: Q01DX009 (ip), vehicle: suspension in saline",98 % of control
same,T/C,"dose: 12.5 mg/kg/injection, schedule: Q01DX009 (ip), vehicle: suspension in saline",104 % of control
same,T/C,"dose: 25.0 mg/kg/injection, schedule: Q01DX009 (ip), vehicle: suspension in saline",107 % of control
same,T/C,"dose: 50.0 mg/kg/injection, schedule: Q01DX009 (ip), vehicle: suspension in saline",124 % of control
Nc1nc(-c2ccc(S(=O)(=O)O)cc2)cc(=O)[nH]1,T/C,"dose: 3.31 mg/kg/injection, schedule: Q01DX009 (ip), vehicle: saline",100 % of control
same,T/C,"dose: 6.62 mg/kg/injection, schedule: Q01DX009 (ip), vehicle: saline",105 % of control
same,T/C,"dose: 13.25 mg/kg/injection, schedule: Q01DX009 (ip), vehicle: saline",105 % of control
same,T/C,"dose: 26.5 mg/kg/injection, schedule: Q01DX009 (ip), vehicle: saline",96 % of control and 104 % of control
same,T/C,"dose: 53.0 mg/kg/injection, schedule: Q01DX009 (ip), vehicle: saline",104 % of control
same,T/C,"dose: 106.0 mg/kg/injection, schedule: Q01DX009 (ip), vehicle: saline",110 % of control
CC1(C)COCN1COCCOCN1COCC1(C)C,T/C,"dose: 6.25 mg/kg/injection, schedule: Q01DX009 (ip), vehicle: saline",94 % of control
same,T/C,"dose: 12.5 mg/kg/injection, schedule: Q01DX009 (ip), vehicle: saline",96 % of control
same,T/C,"dose: 25.0 mg/kg/injection, schedule: Q01DX009 (ip), vehicle: saline",101 % of control
same,T/C,"dose: 50.0 mg/kg/injection, schedule: Q01DX009 (ip), vehicle: saline",115 % of control
same,T/C,"dose: 100.0 mg/kg/injection, schedule: Q01DX009 (ip), vehicle: saline",113 % of control
Nc1ncnc2c1ncn2C1OC(CO)CC1O (stereo not drawn),T/C,"dose: 37.5 mg/kg/injection, schedule: Q01DX009 (ip), vehicle: Klucel (hydroxypropylcellulose) (HPC)",121 % of control
same,T/C,"dose: 75.0 mg/kg/injection, schedule: Q01DX009 (ip), vehicle: Klucel (hydroxypropylcellulose) (HPC)",123 % of control
CC(=O)OCC1C(=O)OCC1C(=O)N1Cc2cc3ccccc3nc2C1 (stereo not drawn),T/C,"dose: 8.0 mg/kg/injection, schedule: Q01DX009 (ip), vehicle: saline with Tween-80",115 % of control
same,T/C,[4],95 % of control
same,T/C,[5],100 % of control
same,T/C,[6],91 % of control
same,T/C,[7],88 % of control
